Assay results: patent US12115152B2, “Pan-RAF kinase inhibitor and use thereof” (HEFEI INSTITUTES OF PHYSICAL SCIENCE, CHINESE ACADEMY OF …, priority 2019, dated 2024)

Experiments:
Assay type in all cases: cell-based
[1] = Effect on proliferation of cells, Cell Titer-Glo, 72 hours; details: Mus musculus, BaF3 cells
Method: The compounds of the present invention were tested for their effect on growth of cancer cells (Table 2), to further evaluate the compounds herein for their inhibitory effect on proliferation of cancer cells and their selectivity in inhibiting proliferation of cancer cells. […]
(§1) In the example, solutions of the test compound in DMSO at different concentrations (0.000508 μM, 0.00152 μM, 0.00457 μM, 0.0137 μM, 0.0411 μM, 0.123 μM, 0.370 μM, 1.11 μM, 3.33 μM, 10 μM) was added to the above cells respectively. The cells were incubated for 72 hours. The number of viable cells was detected with a Cell Titer-Glo (Promega, USA) Cell Viability Assay Kit by quantifying the ATP in viable cells. The values of GI50 (unit) of the compounds of the present invention against each of the test cells were determined.

[2] = test system: colorectal cancer cell COLO205 (expressing BRAF-V600E mutant kinase); assay: Effect on proliferation of cancer cells, Cell Titer-Glo, 72 hours; details: Homo sapiens, COLO 205
Method: (§2) The compounds of the present invention were tested for their effect on growth of cancer cells (Table 2), to further evaluate the compounds herein for their inhibitory effect on proliferation of cancer cells and their selectivity in inhibiting proliferation of cancer cells.
(§3) The cells were incubated for 72 hours. The number of viable cells was detected with a Cell Titer-Glo (Promega, USA) Cell Viability Assay Kit by quantifying the ATP in viable cells. The values of GI50 (unit) of the compounds of the present invention against each of the test cells were determined.

[3] = test system: melanoma cell A375 (expressing BRAF-V600E mutant kinase); assay: as above; details: Homo sapiens, A-375
Method: as §2, §3

[4] = test system: mouse BaF3-FL-BRAF-V600E (stably expressing full-length BRAF-V600E mutant kinase); assay: as above
Method: as §2, §3

[5] = test system: human acute leukemia cell NB4 (expressing KRAS-A18D mutant kinase); assay: as above; details: NB-4
Method: as §2
(§4) The above-mentioned BaF3-FL-BRAF-V600E mutant cell line was constructed by the method as follows. The sequence of human full-length BRAF-V600E mutant kinase region was amplified by PCR, inserted into a MSCV-Puro vector (purchased from Clontech), and stably transfected into mouse BaF3 cells by the retroviral method, and the growth factor IL-3 was removed. Eventually, a cell line dependent on a full-length BRAF-V600E protein having various mutation transferred was obtained.
as §1

[6] = test system: human acute leukemia cell OCI-AML-3 (expressing NRAS-Q61L mutant kinase); assay: as above; details: OCI-AML-3 cells
Method: as §2, §4, §1

Row | Compound | GI50 [1] [nM] | GI50 [2] [nM] | GI50 [3] [nM] | GI50 [4] [nM] | GI50 [5] [nM] | GI50 [6] [nM]
1 | Cc1ccc(NC(=O)c2cccc(C(C)(C)C#N)c2)cc1-n1cc(-c2cncc(N3CCNCC3)c2)cn1 [Example 163, 3-(2-cyanoprop-2-yl)-N-(4-methyl-3-(4-(5-(piperizan-1-yl)pyrid-3-yl)1H-pyrazol-1-yl)phenyl)benzamide] | 1600 | 39 | 160 | 18 | 44 | 10
2 | Cc1ccc(NC(=O)c2cccc(C(F)(F)F)c2)cc1-n1cc(-c2cncc(N3CCNCC3)c2)cn1 [Example 164, N-(4-methyl-3-(4-(5-(piperizan-1-yl)pyrid-3-yl)-1H-pyrazol-1-yl)phenyl)-3-(trifluoromethyl)benzamide] | 1600 | 71 | 120 | 4 | 35 | 9.1
3 | Cc1ccc(NC(=O)c2cccc(C(C)(C)C#N)c2)cc1-n1cc(-c2cnccc2OCCCCO)cn1 [Example 165, 3-(2-cyanoprop-2-yl)-N-(3-(4-(4-(4-hydroxybutoxy)pyrid-3-yl)-1H-pyrazol-1-yl)-4-methylphenyl)benzamide] | 1800 | 190 | 40 | < 0.3 | 75 | 14
4 | Cc1ccc(NC(=O)c2cccc(C(F)(F)F)c2)cc1-n1cc(-c2cnccc2OCCCCO)cn1 [Example 166, N-(3-(4-(4-(4-hydroxybutoxy)pyrid-3-yl)-1H-pyrazol-1-yl)-4-methylphenyl)-3-(trifluoromethyl)benzamide] | 2600 | 94 | 77 | 1 | 69 | 19
